Source: patent US10722480B2, “Agent for controlling cells constituting cancer microenvironment or inflammatory microenvironment” (The University of Tokyo, priority 2015, dated 2020)
Where two headings read alike, the source gives them in different places.

Tests used:
B16F10 melanoma cells [1] = test: Lung metastasis model (B16F10); assay type: in vivo, mouse; conditions: B16F10 via tail vein, Day 9 post tumor administration
Procedure: To provide a lung metastasis model, 1×10^6 B16F10 melanoma cells were suspended in 200 μL of PBS, and administered from the tail vein of each of wild-type C57BL/6 mice. Administration of the inhibitor was carried out one day before, 30 minutes before, and one day after the tumor administration. To provide a control, DMSO and a pyrimidine fluoride anticancer drug 5-FU were administered. The mice were euthanized on Day 9 post tumor administration, and PBS was perfused from the left ventricle, followed by isolation of lungs. Visible lung metastatic lesions in the left lobe were counted.

LLC tumor cells = test: LDH cytotoxicity assay, LLC tumor cells; assay type: cell-based
Procedure: (§1) The cytotoxicity of inhibitors was tested by using LDH Cytotoxicity Detection Kit (TaKaRa) according to the manufacturer's instructions. Briefly, tumor cells were cultured in the presence or absence of an agent (disulfiram or 5FU) for 72 hours, and the culture supernatant was then collected and tested for the concentration of lactate dehydrogenase released from damaged cells. For measurement of cell proliferation, cells were incubated in a plate well together with an inhibitor for 48 hours. During the last 30 minutes, WST-1 (Dojindo Laboratories) was added to the culture liquid, and the absorbance of each well was measured at 450 nm versus 650 nm reference using EnVision (PerkinElmer) to detect the formazan level.

B16F10 melanoma cells [2] = test: LDH cytotoxicity assay, B16F10 melanoma cells; assay type: cell-based
Procedure: as §1

B16F10 melanoma cells [3] = test: WST-1 proliferation assay, B16F10 melanoma cells; assay type: cell-based; conditions: WST-1, 48 hours
Procedure: as §1

FROUNT-CCR2 interaction = target: T1, FROUNT-CCR2 interaction (Homo sapiens, UniProt Q9BW27); test: HTRF binding inhibition assay, FROUNT-CCR2 interaction
T1 construct: made in house
T1 sequence (Q9BW27 500-656): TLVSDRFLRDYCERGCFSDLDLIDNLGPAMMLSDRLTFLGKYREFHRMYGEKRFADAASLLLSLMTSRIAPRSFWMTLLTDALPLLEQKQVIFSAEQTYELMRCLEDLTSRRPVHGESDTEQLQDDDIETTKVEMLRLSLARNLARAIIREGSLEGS
Procedure: For the screening, a compound library containing 131,200 kinds of compounds dissolved in DMSO at a concentration of 10 mM or 2 mM (obtained from Open Innovation Center for Drug Discovery, the University of Tokyo) was used. The HTRF assay was carried out using a 384-well low-dose white microplate (Corning Coaster; catalog number 3676). In each well, 4 μL of a solution of 20 nM GST fusion FROUNT protein (a recombinant polypeptide prepared by fusing GST to aa 500-656 of SEQ ID NO:2), and DMSO or test compounds were mixed with a binding buffer (10 mM HEPES [pH 7.4], 0.2 M potassium fluoride, 10 mM NaCl, 0.1% Tween 20, and 0.5% bovine serum albumin [BSA]), and the plate was incubated at room temperature for 30 minutes. […]. After incubation at room temperature for 20 hours, the HTRF signal was measured at emission wavelengths of 620 nm and 665 nm using a multilabel counter EnVision (PerkinElmer).
(§2) By the same HTRF assay as described above, the abilities of disulfiram to inhibit the FROUNT-CCR2 interaction or the FROUNT-CCR5 interaction were investigated. As the CCR5 pro-C peptide, the 16 residues […] (SEQ ID NO:4) in the C-terminal region of CCR5 was used. As a control, the p53-MDM2 interaction (which is inhibited by an MDM-2-specific inhibitor Nutlin), which is also a helix peptide-protein interaction like the interaction between FROUNT and CCR2 or CCR5 but is not related thereto, was used.

p53-MDM2 interaction = p53-MDM2 interaction (Homo sapiens, UniProt Q00987); test: HTRF binding inhibition assay, p53-MDM2 control interaction; conditions: p53-MDM2 control interaction
p53-MDM2 interaction, sequence (Q00987 whole entry): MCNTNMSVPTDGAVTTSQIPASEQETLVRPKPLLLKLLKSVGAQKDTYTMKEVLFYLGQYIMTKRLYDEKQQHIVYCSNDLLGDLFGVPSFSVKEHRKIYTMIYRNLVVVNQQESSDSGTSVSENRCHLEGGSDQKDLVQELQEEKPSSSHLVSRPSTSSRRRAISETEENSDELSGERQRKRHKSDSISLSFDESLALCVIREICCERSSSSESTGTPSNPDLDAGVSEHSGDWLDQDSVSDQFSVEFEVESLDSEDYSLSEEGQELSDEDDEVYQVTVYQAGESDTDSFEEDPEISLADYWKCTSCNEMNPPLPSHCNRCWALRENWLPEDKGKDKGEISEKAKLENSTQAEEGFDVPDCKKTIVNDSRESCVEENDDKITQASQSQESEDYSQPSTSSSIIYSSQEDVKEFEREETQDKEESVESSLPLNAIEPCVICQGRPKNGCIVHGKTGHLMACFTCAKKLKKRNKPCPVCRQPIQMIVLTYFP
Description: as §2

[4] = target: T2, aldehyde dehydrogenase (ALDH) (Rattus norvegicus, UniProt P11884); conditions: Excerpt from Alcohol Clin Exp Res 1996.20.595-; read-out: ALDH inhibition; cited from earlier work
T2 sequence (P11884 20-519): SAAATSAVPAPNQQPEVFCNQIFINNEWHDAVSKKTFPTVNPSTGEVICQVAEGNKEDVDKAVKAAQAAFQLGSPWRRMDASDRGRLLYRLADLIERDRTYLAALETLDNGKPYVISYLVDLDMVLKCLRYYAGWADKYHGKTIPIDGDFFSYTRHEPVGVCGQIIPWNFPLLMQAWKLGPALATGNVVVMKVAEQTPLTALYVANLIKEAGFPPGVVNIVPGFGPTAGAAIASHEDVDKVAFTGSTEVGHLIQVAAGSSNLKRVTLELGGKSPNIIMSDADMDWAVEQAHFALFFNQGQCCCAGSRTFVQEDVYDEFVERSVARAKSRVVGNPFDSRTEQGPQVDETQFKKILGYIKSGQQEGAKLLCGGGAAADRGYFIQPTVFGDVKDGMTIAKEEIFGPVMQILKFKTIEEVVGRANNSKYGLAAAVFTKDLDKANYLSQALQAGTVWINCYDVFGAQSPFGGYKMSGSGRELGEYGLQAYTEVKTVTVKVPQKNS

[5] = HTRF, read-out: FROUNT inhibition (IC50 against FROUNT-CCR2)

| IC50 (FROUNT-CCR2 interaction; [5]) | IC50 (p53-MDM2 interaction) | Structure (SMILES) | IC50 [4] | further results |
| --- | --- | --- | --- | --- |
| – | – | O=c1[nH]cc(F)c(=O)[nH]1 [5FU] | – | formation of lung metastatic lesions (B16F10 melanoma cells [1]): did not reduce; cytotoxic activity on LLC tumor cells (LLC tumor cells): completely killed; cytotoxic activity on B16F10 melanoma cells (B16F10 melanoma cells [2]): showed cytotoxic activity; growth-inhibiting action on B16F10 melanoma cells (B16F10 melanoma cells [3]): growth-inhibiting action |
| > 1000 nM | > 1000 nM | CCN(CC)C(=O)[S+](C)[O-] (stereo not drawn) [Me-DTC sulfoxide] | 930 nM | – |
| > 1000 nM | > 1000 nM | CCN(CC)C(=O)S(C)(=O)=O [Me-DTC sulfone] | 530 nM | – |
| – | – | CCN(CC)C(=S)S [DDC, sodium diethyldithiocarbamate] | – | IC50 (FROUNT-CCR2 interaction): 137 nM |

| Structure (SMILES) | IC50 (FROUNT-CCR2 interaction; [5]) | IC50 (p53-MDM2 interaction) | IC50 [4] | further results |
| --- | --- | --- | --- | --- |
| CCN(CC)C(=S)[S-].CCN(CC)C(=S)[S-].CCN(CC)C(=S)[S-].[Fe+3] [iron (III) complex of DDC] | 9.2 nM | – | – | – |
